Experiments:
[1] = molecular target: T1, 5-hydroxytryptamine receptor 1A (Homo sapiens, UniProt P08908)
T1 sequence (P08908 whole entry): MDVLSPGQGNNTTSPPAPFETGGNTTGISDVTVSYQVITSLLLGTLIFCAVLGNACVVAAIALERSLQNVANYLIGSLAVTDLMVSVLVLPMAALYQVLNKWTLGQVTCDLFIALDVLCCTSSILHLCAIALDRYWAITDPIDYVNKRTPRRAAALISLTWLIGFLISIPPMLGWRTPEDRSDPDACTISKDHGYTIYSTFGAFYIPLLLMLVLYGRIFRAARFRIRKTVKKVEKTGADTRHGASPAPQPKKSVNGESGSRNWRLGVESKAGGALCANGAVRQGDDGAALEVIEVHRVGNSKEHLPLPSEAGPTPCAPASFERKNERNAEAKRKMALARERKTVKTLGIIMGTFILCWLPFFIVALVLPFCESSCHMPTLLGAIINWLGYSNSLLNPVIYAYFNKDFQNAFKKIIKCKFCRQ

[2] = molecular target: T2, 5-hydroxytryptamine receptor 1B (Homo sapiens, UniProt P28222)
T2 sequence (P28222 whole entry): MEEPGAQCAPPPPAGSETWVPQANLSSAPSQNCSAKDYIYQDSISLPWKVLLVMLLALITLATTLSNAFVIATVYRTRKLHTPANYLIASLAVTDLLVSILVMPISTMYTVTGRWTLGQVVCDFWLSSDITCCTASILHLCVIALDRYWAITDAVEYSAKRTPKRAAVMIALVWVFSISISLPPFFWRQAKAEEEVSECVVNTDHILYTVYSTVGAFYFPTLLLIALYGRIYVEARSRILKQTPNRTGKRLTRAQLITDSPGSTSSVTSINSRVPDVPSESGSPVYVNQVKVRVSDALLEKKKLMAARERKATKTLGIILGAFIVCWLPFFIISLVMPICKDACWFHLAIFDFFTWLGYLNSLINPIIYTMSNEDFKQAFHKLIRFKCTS

[3] = molecular target: Sodium-dependent serotonin transporter (Rattus norvegicus, UniProt P31652)
Sequence of Sodium-dependent serotonin transporter (Rattus norvegicus, UniProt P31652) (P31652 whole entry): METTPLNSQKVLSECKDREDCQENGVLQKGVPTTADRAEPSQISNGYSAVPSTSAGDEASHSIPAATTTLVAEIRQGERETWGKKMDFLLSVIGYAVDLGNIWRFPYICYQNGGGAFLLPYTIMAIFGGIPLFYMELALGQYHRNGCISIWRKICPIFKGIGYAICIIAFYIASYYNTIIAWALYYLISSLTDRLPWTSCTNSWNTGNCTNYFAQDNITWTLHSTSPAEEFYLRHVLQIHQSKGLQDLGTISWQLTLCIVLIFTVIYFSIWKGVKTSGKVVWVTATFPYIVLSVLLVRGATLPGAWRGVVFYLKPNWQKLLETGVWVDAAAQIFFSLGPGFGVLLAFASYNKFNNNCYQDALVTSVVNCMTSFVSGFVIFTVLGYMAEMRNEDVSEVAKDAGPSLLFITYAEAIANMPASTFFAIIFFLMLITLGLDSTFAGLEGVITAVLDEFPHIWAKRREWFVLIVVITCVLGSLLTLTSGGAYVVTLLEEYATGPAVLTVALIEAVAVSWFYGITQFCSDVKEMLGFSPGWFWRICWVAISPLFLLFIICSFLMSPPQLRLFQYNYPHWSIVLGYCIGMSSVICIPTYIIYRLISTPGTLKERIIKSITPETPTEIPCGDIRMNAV
Description: Inhibition of [3H]5HT uptake at SERT in rat cortical synaptosomes

[4] = molecular target: T3, 5-hydroxytryptamine receptor 1D (Homo sapiens, UniProt P28221)
T3 sequence (P28221 whole entry): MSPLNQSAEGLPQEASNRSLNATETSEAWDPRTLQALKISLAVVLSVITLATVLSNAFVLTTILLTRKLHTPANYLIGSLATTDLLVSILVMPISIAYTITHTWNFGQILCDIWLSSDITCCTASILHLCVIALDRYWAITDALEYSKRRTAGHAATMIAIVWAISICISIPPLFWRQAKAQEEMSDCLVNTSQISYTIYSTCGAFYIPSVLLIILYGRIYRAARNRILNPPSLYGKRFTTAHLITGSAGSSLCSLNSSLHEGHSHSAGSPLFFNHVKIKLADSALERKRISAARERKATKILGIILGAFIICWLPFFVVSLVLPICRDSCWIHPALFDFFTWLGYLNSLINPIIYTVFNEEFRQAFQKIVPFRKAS

[5] = molecular target: T1, 5-hydroxytryptamine receptor 1A; remark: listed apart in the source
[6] = molecular target: T2, 5-hydroxytryptamine receptor 1B; experiment: Displacement of [3H]5HT from human recombinant 5HT1B receptor relative to control
[7] = molecular target: T3, 5-hydroxytryptamine receptor 1D; experiment: Displacement of [3H]5HT from human recombinant 5HT1D receptor relative to control
Rattus norvegicus = experiment: Reversal of SKF-99101-induced increase in seizure threshold in orally dosed rat by electroshock threshold test; assay type: functional
[8] = Ratio of drug level in brain to blood in rat at 3 mg/kg, po; assay type: ADME, organism-based; parameters: dose 3 mg/kg, route oral; conditions: read-out: BBR
[9] = molecular target: T4, Alpha-1B adrenergic receptor (Homo sapiens, UniProt P35368); experiment: Displacement of radioligand from human cloned adrenergic Alpha-1B receptor
T4 sequence (P35368 whole entry): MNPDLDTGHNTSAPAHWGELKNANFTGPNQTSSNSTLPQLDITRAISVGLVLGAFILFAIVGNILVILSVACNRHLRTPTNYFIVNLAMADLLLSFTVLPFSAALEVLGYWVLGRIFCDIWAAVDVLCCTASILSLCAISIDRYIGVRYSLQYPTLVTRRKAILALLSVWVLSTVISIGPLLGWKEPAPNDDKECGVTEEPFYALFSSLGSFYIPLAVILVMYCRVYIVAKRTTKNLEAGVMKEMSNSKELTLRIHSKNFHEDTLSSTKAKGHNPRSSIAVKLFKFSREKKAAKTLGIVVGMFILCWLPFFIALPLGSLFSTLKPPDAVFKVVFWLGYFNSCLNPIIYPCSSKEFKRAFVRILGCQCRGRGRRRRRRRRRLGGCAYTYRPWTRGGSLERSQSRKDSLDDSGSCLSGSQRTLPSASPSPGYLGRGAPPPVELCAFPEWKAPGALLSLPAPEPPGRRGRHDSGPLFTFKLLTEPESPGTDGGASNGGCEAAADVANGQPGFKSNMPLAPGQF

[10] = molecular target: 5-hydroxytryptamine receptor 2A (Homo sapiens, UniProt P28223); experiment: Displacement of radioligand from human cloned 5HT2A receptor
Sequence of 5-hydroxytryptamine receptor 2A (P28223 whole entry): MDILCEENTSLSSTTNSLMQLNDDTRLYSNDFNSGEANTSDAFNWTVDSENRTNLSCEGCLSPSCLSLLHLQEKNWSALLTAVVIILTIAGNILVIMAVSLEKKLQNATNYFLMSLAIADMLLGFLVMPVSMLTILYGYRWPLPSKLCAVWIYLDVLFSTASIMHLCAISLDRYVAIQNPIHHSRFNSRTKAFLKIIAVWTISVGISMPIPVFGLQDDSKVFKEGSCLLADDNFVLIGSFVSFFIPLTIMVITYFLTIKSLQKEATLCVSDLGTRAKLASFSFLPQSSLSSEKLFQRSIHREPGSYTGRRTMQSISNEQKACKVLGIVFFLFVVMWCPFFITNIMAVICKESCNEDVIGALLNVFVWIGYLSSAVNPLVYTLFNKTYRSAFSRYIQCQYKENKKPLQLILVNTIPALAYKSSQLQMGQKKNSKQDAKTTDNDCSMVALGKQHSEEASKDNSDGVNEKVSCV

D(2) dopamine receptor = D(2) dopamine receptor (Homo sapiens, UniProt P14416)
Sequence of D(2) dopamine receptor (P14416 whole entry): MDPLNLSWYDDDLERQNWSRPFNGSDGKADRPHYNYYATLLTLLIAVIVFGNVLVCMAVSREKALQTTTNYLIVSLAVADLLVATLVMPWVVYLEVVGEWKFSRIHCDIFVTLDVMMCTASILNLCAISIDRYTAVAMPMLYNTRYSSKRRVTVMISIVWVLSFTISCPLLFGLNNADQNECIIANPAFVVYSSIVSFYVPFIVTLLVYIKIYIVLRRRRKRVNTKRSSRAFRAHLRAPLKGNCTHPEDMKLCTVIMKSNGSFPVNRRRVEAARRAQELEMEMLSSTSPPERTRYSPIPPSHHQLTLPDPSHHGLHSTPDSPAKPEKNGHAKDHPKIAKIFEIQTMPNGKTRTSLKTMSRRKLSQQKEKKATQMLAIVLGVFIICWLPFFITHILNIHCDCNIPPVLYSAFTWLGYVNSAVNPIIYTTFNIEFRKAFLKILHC
Description: Displacement of radioligand from human cloned dopamine D2 receptor

[11] = molecular target: T5, 5-hydroxytryptamine receptor 1F (Homo sapiens, UniProt P30939); experiment: Displacement of radioligand from human cloned 5HT1F receptor
T5 sequence (P30939 whole entry): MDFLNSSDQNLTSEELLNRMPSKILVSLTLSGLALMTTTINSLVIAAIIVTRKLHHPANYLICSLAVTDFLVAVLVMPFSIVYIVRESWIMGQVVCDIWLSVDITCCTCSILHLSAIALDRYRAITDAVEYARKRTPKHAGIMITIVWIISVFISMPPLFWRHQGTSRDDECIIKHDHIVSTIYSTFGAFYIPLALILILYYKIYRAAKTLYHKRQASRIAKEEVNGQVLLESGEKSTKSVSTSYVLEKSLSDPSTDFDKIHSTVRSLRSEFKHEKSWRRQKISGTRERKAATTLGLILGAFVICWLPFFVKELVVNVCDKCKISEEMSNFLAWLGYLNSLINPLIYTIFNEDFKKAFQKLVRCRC

[12] = molecular target: 5-hydroxytryptamine receptor 4 (Homo sapiens, UniProt Q13639); experiment: Displacement of radioligand from human cloned 5HT4 receptor
Sequence of 5-hydroxytryptamine receptor 4 (Q13639 whole entry): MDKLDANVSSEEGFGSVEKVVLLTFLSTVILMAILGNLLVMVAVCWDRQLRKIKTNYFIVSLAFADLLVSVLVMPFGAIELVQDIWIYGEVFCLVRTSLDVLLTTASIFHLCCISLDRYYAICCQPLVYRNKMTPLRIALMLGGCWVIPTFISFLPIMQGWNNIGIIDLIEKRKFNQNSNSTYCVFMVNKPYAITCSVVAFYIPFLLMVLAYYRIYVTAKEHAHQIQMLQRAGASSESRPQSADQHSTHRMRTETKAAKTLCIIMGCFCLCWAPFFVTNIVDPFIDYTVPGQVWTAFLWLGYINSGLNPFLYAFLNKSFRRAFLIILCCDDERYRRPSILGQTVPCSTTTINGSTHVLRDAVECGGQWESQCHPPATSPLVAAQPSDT

[13] = molecular target: 5-hydroxytryptamine receptor 6 (Homo sapiens, UniProt P50406); experiment: Displacement of radioligand from human cloned 5HT6 receptor
Sequence of 5-hydroxytryptamine receptor 6 (P50406 whole entry): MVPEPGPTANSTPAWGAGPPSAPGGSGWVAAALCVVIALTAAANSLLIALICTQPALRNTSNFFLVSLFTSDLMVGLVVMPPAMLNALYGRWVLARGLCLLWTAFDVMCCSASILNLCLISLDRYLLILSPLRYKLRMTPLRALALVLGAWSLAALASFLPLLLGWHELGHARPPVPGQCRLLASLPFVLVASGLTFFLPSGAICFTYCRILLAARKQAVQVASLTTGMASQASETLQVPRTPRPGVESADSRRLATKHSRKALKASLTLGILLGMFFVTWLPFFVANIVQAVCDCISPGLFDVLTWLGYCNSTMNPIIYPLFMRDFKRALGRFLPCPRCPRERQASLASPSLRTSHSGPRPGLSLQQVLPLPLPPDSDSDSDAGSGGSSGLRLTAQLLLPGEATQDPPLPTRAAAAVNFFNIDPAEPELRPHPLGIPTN

[14] = molecular target: 5-hydroxytryptamine receptor 5A (Homo sapiens, UniProt P47898)
Sequence of 5-hydroxytryptamine receptor 5A (P47898 whole entry): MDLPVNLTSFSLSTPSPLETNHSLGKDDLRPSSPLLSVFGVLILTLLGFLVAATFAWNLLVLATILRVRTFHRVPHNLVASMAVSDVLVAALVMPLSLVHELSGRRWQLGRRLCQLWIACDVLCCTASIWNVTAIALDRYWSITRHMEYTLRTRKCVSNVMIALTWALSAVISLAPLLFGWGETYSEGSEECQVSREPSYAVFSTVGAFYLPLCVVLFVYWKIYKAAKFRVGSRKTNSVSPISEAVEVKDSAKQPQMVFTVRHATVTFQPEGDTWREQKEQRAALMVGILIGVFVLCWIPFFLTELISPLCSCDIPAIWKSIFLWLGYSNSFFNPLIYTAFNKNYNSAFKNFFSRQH
Description: Displacement of radioligand from human cloned 5HT5A receptor

[15] = molecular target: 5-hydroxytryptamine receptor 2B (Homo sapiens, UniProt P41595); experiment: Displacement of radioligand from human cloned 5HT2B receptor
Sequence of 5-hydroxytryptamine receptor 2B (P41595 whole entry): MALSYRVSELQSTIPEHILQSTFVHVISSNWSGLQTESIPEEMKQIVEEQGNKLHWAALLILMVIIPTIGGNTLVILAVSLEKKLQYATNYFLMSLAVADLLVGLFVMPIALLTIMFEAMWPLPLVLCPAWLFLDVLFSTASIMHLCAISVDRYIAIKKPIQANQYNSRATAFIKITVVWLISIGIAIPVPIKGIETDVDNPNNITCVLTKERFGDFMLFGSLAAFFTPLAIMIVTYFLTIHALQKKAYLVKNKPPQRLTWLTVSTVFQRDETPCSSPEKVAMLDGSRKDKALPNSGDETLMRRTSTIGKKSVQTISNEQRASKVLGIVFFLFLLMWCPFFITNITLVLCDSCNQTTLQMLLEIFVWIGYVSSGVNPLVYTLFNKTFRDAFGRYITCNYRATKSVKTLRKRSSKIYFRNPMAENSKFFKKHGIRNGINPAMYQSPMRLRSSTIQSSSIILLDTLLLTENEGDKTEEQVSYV

[16] = Clearance in rat at 1 mg/kg, iv; assay type: ADME, organism-based; parameters: dose 1 mg/kg, route intravenous; conditions: in vivo
[17] = Half life in rat at 1 mg/kg, iv; assay type: ADME, organism-based; parameters: dose 1 mg/kg, route intravenous; conditions: in vivo
[18] = molecular target: 5-hydroxytryptamine receptor 1E (Homo sapiens, UniProt P28566); experiment: Displacement of radioligand from human cloned 5HT1E receptor
Sequence of 5-hydroxytryptamine receptor 1E (P28566 whole entry): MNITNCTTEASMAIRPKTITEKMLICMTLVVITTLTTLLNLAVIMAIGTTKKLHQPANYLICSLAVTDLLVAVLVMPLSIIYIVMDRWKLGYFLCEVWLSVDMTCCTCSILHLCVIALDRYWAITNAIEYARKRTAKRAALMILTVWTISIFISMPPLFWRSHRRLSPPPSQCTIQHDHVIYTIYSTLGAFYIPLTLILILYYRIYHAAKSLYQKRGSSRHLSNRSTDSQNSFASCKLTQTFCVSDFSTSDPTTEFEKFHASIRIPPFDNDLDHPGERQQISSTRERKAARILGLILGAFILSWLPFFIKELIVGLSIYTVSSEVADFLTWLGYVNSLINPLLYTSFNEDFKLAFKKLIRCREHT

[19] = molecular target: Beta-2 adrenergic receptor (Homo sapiens, UniProt P07550); experiment: Displacement of radioligand from human cloned adrenergic beta2 receptor
[20] = molecular target: 5-hydroxytryptamine receptor 7 (Homo sapiens, UniProt P34969); experiment: Displacement of radioligand from human cloned 5HT7 receptor
[21] = molecular target: Sodium-dependent serotonin transporter (Homo sapiens, UniProt P31645); experiment: Displacement of radioligand from human cloned SERT
Sequence of Sodium-dependent serotonin transporter (Homo sapiens, UniProt P31645) (P31645 whole entry): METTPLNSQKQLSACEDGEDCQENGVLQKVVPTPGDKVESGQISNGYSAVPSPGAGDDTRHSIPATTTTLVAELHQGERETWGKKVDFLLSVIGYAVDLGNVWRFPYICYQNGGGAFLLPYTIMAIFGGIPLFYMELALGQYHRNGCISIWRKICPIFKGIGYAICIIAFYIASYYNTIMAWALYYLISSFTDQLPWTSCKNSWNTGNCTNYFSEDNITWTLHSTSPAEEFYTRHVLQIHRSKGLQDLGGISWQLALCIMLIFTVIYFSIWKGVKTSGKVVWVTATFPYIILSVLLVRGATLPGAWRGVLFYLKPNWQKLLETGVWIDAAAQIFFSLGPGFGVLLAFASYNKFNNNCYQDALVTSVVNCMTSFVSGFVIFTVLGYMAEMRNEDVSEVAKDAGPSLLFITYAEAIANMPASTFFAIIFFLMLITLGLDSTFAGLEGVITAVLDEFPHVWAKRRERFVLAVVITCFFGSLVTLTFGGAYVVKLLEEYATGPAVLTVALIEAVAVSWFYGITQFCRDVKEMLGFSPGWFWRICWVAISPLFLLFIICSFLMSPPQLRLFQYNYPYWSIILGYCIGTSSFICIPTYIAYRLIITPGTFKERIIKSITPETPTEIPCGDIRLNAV

[22] = molecular target: T6, 5-hydroxytryptamine receptor 2C (Homo sapiens, UniProt P28335); experiment: Displacement of radioligand from human cloned 5HT2C receptor
T6 sequence (P28335 whole entry): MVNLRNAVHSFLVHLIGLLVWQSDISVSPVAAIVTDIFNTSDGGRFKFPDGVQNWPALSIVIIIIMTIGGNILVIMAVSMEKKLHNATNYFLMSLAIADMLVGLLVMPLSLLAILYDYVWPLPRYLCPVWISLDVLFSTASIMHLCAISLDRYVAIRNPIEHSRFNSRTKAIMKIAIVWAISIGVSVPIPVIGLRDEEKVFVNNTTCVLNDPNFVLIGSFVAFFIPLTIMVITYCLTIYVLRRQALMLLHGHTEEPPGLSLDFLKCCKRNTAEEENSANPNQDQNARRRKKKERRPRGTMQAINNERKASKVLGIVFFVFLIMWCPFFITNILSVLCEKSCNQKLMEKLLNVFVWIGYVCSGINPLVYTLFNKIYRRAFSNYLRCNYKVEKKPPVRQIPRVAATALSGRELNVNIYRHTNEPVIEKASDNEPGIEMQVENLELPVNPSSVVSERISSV

[23] = Cmax in rat brain at 3 mg/kg, po; assay type: ADME, organism-based; parameters: dose 3 mg/kg, route oral
[24] = Volume of distribution at steady state in rat at 1 mg/kg, iv; assay type: ADME, organism-based; parameters: dose 1 mg/kg, route intravenous; conditions: in vivo, read-out: Vdss

Row | SMILES | Ki [2] | Ki [3] | Ki [4] | Ki [5] | Intrinsic activity [6] | Intrinsic activity [7] | clearance [16] | half-life [17] | Cmax [23] | Vd [24] | further results
1 | COc1ccc(CN2CCN(CCOc3cccc4nc(C)ccc34)CC2)cc1 | 501 nM | 398 nM | 12.6 nM | 50.1 nM |  |  |  |  |  |  | Ki [1]: 5.01 nM
2 | Cc1ccc2c(OCCN3CCC(Cc4cccc(NS(C)(=O)=O)c4)CC3)cccc2n1 | 2 nM | 1000 nM | 0.501 nM | 2.51 nM | 0.3 |  | 38 mL/min/kg | 36 min | 346 ng/g | 1.6 L/kg | Activity (Rattus norvegicus): Dose-dependent effect; Kp [8]: 0.2; Ki [9]: 200 nM; Ki [10]: 2510 nM; Ki (D(2) dopamine receptor): 63.1 nM; Ki [11]: 501 nM; Ki [12]: > 10000 nM; Ki [13]: > 10000 nM; Ki [14]: 1260 nM; Ki [15]: 2000 nM; Ki [18]: 2510 nM; Ki [19]: 501 nM; Ki [20]: 20 nM; Ki [21]: 1580 nM; Ki [22]: > 1000 nM
3 | COc1ccc(CC2CCN(CCOc3cccc4nc(C)ccc34)CC2)cc1NS(C)(=O)=O | 39.8 nM | 631 nM | 6.31 nM | 126 nM |  |  |  |  |  |  | 
4 | CC(=O)N(C)c1cccc(CC2CCN(CCOc3cccc4nc(C)ccc34)CC2)c1 | 39.8 nM | 79.4 nM | 1.26 nM | 25.1 nM | 0.3 | 0.6 | 37 mL/min/kg | 72 min | 190 ng/g | 2.2 L/kg | 
5 | Cc1ccc2c(OCCN3CCN(Cc4ccccc4)CC3)cccc2n1 | 251 nM | 794 nM | 1 nM | 200 nM |  |  |  |  |  |  | Ki [1]: 25.1 nM
6 | CCNC(=O)Nc1cccc(CC2CCN(CCOc3cccc4nc(C)ccc34)CC2)c1 | 25.1 nM | 251 nM | 0.251 nM | 31.6 nM | 0.2 | 0.3 |  |  |  |  | 
7 | CC(=O)N(C)c1cccc(CN2CCN(CCOc3cccc4nc(C)ccc34)CC2)c1 | 50.1 nM | 1000 nM | 0.316 nM | 251 nM |  |  |  |  |  |  | 
8 | COc1cccc(CN2CCN(CCOc3cccc4nc(C)ccc34)CC2)c1 | 158 nM | 631 nM | 2.51 nM |  |  |  |  |  |  |  | Ki [1]: 12.6 nM
9 | CC(=O)Nc1ccccc1CN1CCN(CCOc2cccc3nc(C)ccc23)CC1 | 1580 nM | 10000 nM | 5.01 nM | 1260 nM |  |  |  |  |  |  | 
10 | CC(=O)Nc1ccc(CN2CCN(CCOc3cccc4nc(C)ccc34)CC2)cc1 | 1260 nM | 1580 nM | 200 nM |  |  |  |  |  |  |  | Ki [1]: 158 nM
11 | Cc1nc(-c2ccc(-c3ccc(C(=O)N4CCc5cc6c(cc54)C4(CCN(C)CC4)CO6)cc3)c(C)c2)no1 [SB-224289] |  |  |  |  |  |  |  |  |  |  | ED50 (Rattus norvegicus; po): 1 mg/kg
12 | CCN(C(C)=O)c1cccc(CC2CCN(CCOc3cccc4nc(C)ccc34)CC2)c1 | 100 nM | 794 nM | 1.58 nM | 5.01 nM | 0.3 | 0.6 | 34 mL/min/kg | 66 min | 234 ng/g | 1.9 L/kg | 
13 | Cc1ccc2c(OCCN3CCC(Cc4cccc(NC(=O)C(C)C)c4)CC3)cccc2n1 | 50.1 nM | 501 nM | 1.26 nM | 6.31 nM | 0.3 | 0.4 | 45 mL/min/kg | 54 min | 175 ng/g | 1.8 L/kg | Kp [8]: 2.3

More lines, main results first:

Row | Ki [2] | Ki [3] | Ki [4] | Ki [5] | Intrinsic activity [6] | Intrinsic activity [7] | clearance [16] | half-life [17] | Cmax [23] | Vd [24] | SMILES | further results
14 | 20 nM | 1260 nM | 0.501 nM | 200 nM |  |  |  |  |  |  | CC(=O)Nc1cccc(CN2CCN(CCOc3cccc4nc(C)ccc34)CC2)c1 | Ki [1]: 2 nM
15 | 15.8 nM | 794 nM | 0.631 nM | 25.1 nM | 0.3 | 0.3 |  |  |  |  | CCC(=O)Nc1cccc(CC2CCN(CCOc3cccc4nc(C)ccc34)CC2)c1 | 
16 | 12.6 nM | 1000 nM | 1.58 nM | 12.6 nM | 0 | 0.5 |  |  |  |  | Cc1ccc2c(OCCN3CCC(Cc4cccc(N(C)S(C)(=O)=O)c4)CC3)cccc2n1 | 
17 | 20 nM | 200 nM | 2 nM | 6.31 nM | 0.4 | 0.5 | 35 mL/min/kg | 78 min | 410 ng/g | 1.5 L/kg | Cc1ccc2c(OCCN3CCC(Cc4cccc(N5CCCC5=O)c4)CC3)cccc2n1 | Kp [8]: 1.2
18 | 1.26 nM | 398 nM | 0.398 nM | 2.51 nM | 0.3 | 0.4 |  |  |  |  | Cc1ccc2c(OCCN3CCC(Cc4cccc(NS(=O)(=O)C(C)C)c4)CC3)cccc2n1 | 
19 | 20 nM | 501 nM | 0.501 nM | 25.1 nM | 0.3 | 0.5 | 47 mL/min/kg | 36 min | 221 ng/g | 1.2 L/kg | CC(=O)Nc1cccc(CC2CCN(CCOc3cccc4nc(C)ccc34)CC2)c1 | Kp [8]: 1.1
20 | 6.31 nM | 398 nM | 1 nM | 15.8 nM | 0.2 | 0.4 |  |  |  |  | Cc1ccc2c(OCCN3CCC(Cc4cccc(NC(=O)CN(C)C)c4)CC3)cccc2n1 | 
21 | 12.6 nM | 794 nM | 1.58 nM | 7.94 nM | 0.5 | 0.4 | 39 mL/min/kg | 54 min | 287 ng/g | 0.9 L/kg | Cc1ccc2c(OCCN3CCC(Cc4cccc(N5CCCS5(=O)=O)c4)CC3)cccc2n1 | Kp [8]: 0.9; Ki [9]: 158 nM; Ki [10]: > 6310 nM; Ki (D(2) dopamine receptor): 501 nM; Ki [11]: 1000 nM; Ki [12]: 7940 nM; Ki [13]: 1580 nM; Ki [14]: 1580 nM; Ki [15]: > 1000 nM; Ki [18]: > 10000 nM; Ki [19]: 1580 nM; Ki [20]: 15.8 nM; Ki [21]: 398 nM; Ki [22]: > 3980 nM
